# US12024510B2, “Pyrazolopyridine-diamides, their use as insecticide and processes for preparing the same” (PI INDUSTRIES LTD., priority 2017, dated 2024)
# Tested on: Helicoverpa armigera
# Assay: Helicoverpa armigera diet incorporation method
# Assay type: in vivo
# Conditions: third instar larvae, dead and moribund combined, 96 h after release
# Description: Test Solutions were Prepared According to the Procedure Described Herein Below (500 PPM):
# • 1. Eppendorf Vortex mixer (ThermoMixer C) and 1.5 mL Eppendorf tubes • 2. Zirconia (Zirconium-Yttrium) beads having diameter of 0.8 to 1.0 mm • 3. Microscope • 4. Beaker 100 mL • 5. Micro-pipette Reagents: • 1. Surfactant Solution • 2. De-mineralized (DM) Water • 1. Weigh 10 mg of the compound of the present invention to be tested in an Eppendorf Tube. • 2. Add 200 mg of the Surfactant Solution into the tube. • 3. Add 600 mg of Zirconia beads into the above mixture. • 4. Fix the tube in Eppendorf Vortex mixer and start vortexing at 2000 rpm. • 5. Mix on Vortex mixer for 30 minutes. After 30 minutes, observe the sample over a microscope at 400× resolution. • 6. If the Maximum particle size is more than 5 μm or average particle size is more than 2 μm or the particle size distribution is uneven, continue vortexing for another 30 minutes and again check the particle size using the microscope. Continue till the average particle size is below 2 microns. • 7. When the required particle size is achieved, add 1.0 mL DM water into the tube, close the cap, shake the tube thoroughly and transfer the contents, along with the beads, into a beaker. • 8. To rinse the tube, add another 1.0 mL of DM water into the tube, close the cap, shake well and transfer this into the same beaker. • 9. Repeat Step no. 8 one more time so that the tube is rinsed well and the compound of the present invention to be tested is transferred to the beaker. • 10. Add 16.8 mL of DM water into the beaker and stir well. • 11. The homogeneous dispersion can then be decanted into a glass vial, immediately, to separate the Zirconia beads. • 12. Immediately use this sample for biological testing. • 13. Further dilutions can be prepared by taking appropriate quantity of the aliquot of Step 10, immediately after stirring, and diluting as per requirement. The sample solution must be well mixed just before biological testing.
# Diet incorporation method was used, in which and semi-synthetic diet was incorporated into the test solution when the temperature is approximately 50° C. in the bioassay containers and stirred thoroughly for properly mixing and then was allowed to cool for 30 min. The solidified diet was cut into equal pieces, and then each piece was transferred in one cell in Bio-assay trays. A single third instar starved larva was released into each of these cells of bioassay trays and the tray was covered with the lid. The bio-assay trays were kept under laboratory conditions at a temperature of 25° C. and Relative Humidity of 70%. Observations on dead, moribund and live larvae were recorded at 96 h after the release of larvae. Percent mortality was calculated by combining dead and moribund larvae. The following compound numbers
row,SMILES,mortality at 300 ppm [%]
1,"Cc1cc2ccnn2c(C(=O)NC(C)C(C)C)c1NC(=O)c1cc(Br)nn1-c1ncccc1Cl (stereo not shown) [Compound 191, 6-(3-bromo-1-(3-chloropyridin-2-yl)-1H-pyrazole-5-carboxamido)-5-methyl-N-(3-methylbutan-2-yl)pyrazolo[1,5-a]pyridine-7-carboxamide]",> 70
2,"Cc1cc2ccnn2c(C(=O)NCC(C)(C)C)c1NC(=O)c1cc(Br)nn1-c1ncccc1Cl [Compound 175, 6-(3-bromo-1-(3-chloropyridin-2-yl)-1H-pyrazole-5-carboxamido)-5-methyl-N-neopentylpyrazolo[1,5-a]pyridine-7-carboxamide]",> 70
3,"Cc1cc2ccnn2c(C(=O)NC2(C)CC2)c1NC(=O)c1cc(Br)nn1-c1ncccc1Cl [Compound 172, 6-(3-bromo-1-(3-chloropyridin-2-yl)-1H-pyrazole-5-carboxamido)-5-methyl-N-(1-methylcyclopropyl)pyrazolo[1,5-a]pyridine-7-carboxamide]",> 70
4,"COc1cc(C(=O)Nc2c(C)cc3ccnn3c2C(=O)NCCC(C)C)n(-c2ncccc2Cl)n1 [Compound 211, 6-(1-(3-chloropyridin-2-yl)-3-methoxy-1H-pyrazole-5-carboxamido)-N-isopentyl-5-methylpyrazolo[1,5-a]pyridine-7-carboxamide]",> 70
5,"CONC(=O)c1c(NC(=O)c2cc(OC)nn2-c2ncccc2Cl)c(Br)cc2ccnn12 [Compound 124, 5-bromo-6-(1-(3-chloropyridin-2-yl)-3-methoxy-1H-pyrazole-5-carboxamido)-N-methoxypyrazolo[1,5-a]pyridine-7-carboxamide]",> 70
6,"Cc1cc2ccnn2c(C(=O)NCC2CCCC2)c1NC(=O)c1cc(Br)nn1-c1ncccc1Cl [Compound 194, 6-(3-bromo-1-(3-chloropyridin-2-yl)-1H-pyrazole-5-carboxamido)-N-(cyclopentylmethyl)-5-methylpyrazolo[1,5-a]pyridine-7-carboxamide]",> 70
7,"COc1cc(C(=O)Nc2c(Br)cc3ccnn3c2C(=O)NCC2CC2)n(-c2ncccc2Cl)n1 [Compound 123, 5-bromo-6-(1-(3-chloropyridin-2-yl)-3-methoxy-1H-pyrazole-5-carboxamido)-N-(cyclopropylmethyl)pyrazolo[1,5-a]pyridine-7-carboxamide]",> 70
8,"COc1cc(C(=O)Nc2c(C)cc3ccnn3c2C(=O)NCc2nccs2)n(-c2ncccc2Cl)n1 [Compound 204, 6-(1-(3-chloropyridin-2-yl)-3-methoxy-1H-pyrazole-5-carboxamido)-5-methyl-N-(thiazol-2-ylmethyl)pyrazolo[1,5-a]pyridine-7-carboxamide]",> 70
9,"COCCNC(=O)c1c(NC(=O)c2cc(OC3CSC3)nn2-c2ncccc2Cl)c(C)cc2ccnn12 [Compound 161, 6-(1-(3-chloropyridin-2-yl)-3-(thietan-3-yloxy)-1H-pyrazole-5-carboxamido)-N-(2-methoxyethyl)-5-methylpyrazolo[1,5-a]pyridine-7-carboxamide]",> 70
10,"COc1cc(C(=O)Nc2c(Br)cc3ccnn3c2C(=O)NC2CC2)n(-c2ncccc2Cl)n1 [Compound 122, 5-bromo-6-(1-(3-chloropyridin-2-yl)-3-methoxy-1H-pyrazole-5-carboxamido)-N-cyclopropylpyrazolo[1,5-a]pyridine-7-carboxamide]",> 70
